In ChEMBL document CHEMBL4257529, “Antifungal amphiphilic kanamycins: new life for an old drug” (Medchemcomm, 2018):

Assays:
Assay type in all cases: functional
Fusarium graminearum [1] = assay: Antifungal activity against Fusarium graminearum infected in wheat plant assessed as fusarium head blight incidence at 0.512 L/ha (reference value: 70%)
Fusarium graminearum [2] = assay: Antifungal activity against Fusarium graminearum infected in wheat plant assessed as fusarium head blight incidence at 1.02 L/ha (reference value: 70%)
Fusarium graminearum [3] = assay: Antifungal activity against Fusarium graminearum infected in wheat plant assessed as fusarium head blight severity at 0.512 L/ha (reference value: 75%)
Fusarium graminearum [4] = assay: Antifungal activity against Fusarium graminearum infected in wheat plant assessed as fusarium head blight severity at 1.02 L/ha (reference value: 75%)
Fusarium graminearum [5] = assay: Antifungal activity against Fusarium graminearum infected in wheat plant assessed as fusarium head blight index at 0.512 L/ha (reference value: 53%)
Fusarium graminearum [6] = assay: Antifungal activity against Fusarium graminearum infected in wheat plant assessed as fusarium head blight index at 1.02 L/ha (reference value: 53%)

CC1(C)CCC(Cc2ccc(Cl)cc2)C1(O)Cn1cncn1 (stereo unspecified) [METCONAZOLE]
Activity (Fusarium graminearum [1]): 13% | Activity (Fusarium graminearum [2]): 12% | Activity (Fusarium graminearum [3]): 69% | Activity (Fusarium graminearum [4]): 58% | Activity_index (Fusarium graminearum [5]): 9% | Activity_index (Fusarium graminearum [6]): 7%
